Measured values: PubChem BioAssay AID200 (DTP/NCI, 2004)
Several values for one entry are separate records, joined by “and”; a condition that tells them apart may be missing. Identical values can stand only once. Toxic doses and inconclusive results are not listed. Where a SMILES comes first, the peptide text is derived from it.

System: B6C3F1 mice, B16 melanoma ip, median survival T/C
Assay: NCI In Vivo Anticancer Drug Screen. Data for tumor model B16 Melanoma (intraperitoneal) in B6C3F1 mice
Conditions: endpoint: median survival time, higher = longer survival
In short: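 Mice bearing transplanted tumor were dosed with compound or vehicle, and survival was recorded. Activity is expressed as the treated-group measurement (T) divided by the vehicle control measurement (C).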

[1] = dose: 0.25 mg/kg/injection, schedule: Q01DX009 (ip), vehicle: Klucel (hydroxypropylcellulose) (HPC)
[2] = dose: 0.5 mg/kg/injection, schedule: Q01DX009 (ip), vehicle: Klucel (hydroxypropylcellulose) (HPC)
[3] = dose: 1.0 mg/kg/injection, schedule: Q01DX009 (ip), vehicle: Klucel (hydroxypropylcellulose) (HPC)
[4] = dose: 12.5 mg/kg/injection, schedule: Q01DX009 (ip), vehicle: saline with Tween-80
[5] = dose: 25.0 mg/kg/injection, schedule: Q01DX009 (ip), vehicle: saline with Tween-80
[6] = dose: 50.0 mg/kg/injection, schedule: Q01DX009 (ip), vehicle: saline with Tween-80
[7] = dose: 100.0 mg/kg/injection, schedule: Q01DX009 (ip), vehicle: saline
[8] = dose: 200.0 mg/kg/injection, schedule: Q01DX009 (ip), vehicle: saline
[9] = dose: 400.0 mg/kg/injection, schedule: Q01DX009 (ip), vehicle: saline

Compound: CO[C@@]12[C@H](COC(N)=O)C3=C(C(=O)C(C)=C(N)C3=O)N1C[C@@H]1N[C@@H]12
- T/C (dose: 0.12 mg/kg/injection, schedule: Q01DX009 (ip), vehicle: Klucel (hydroxypropylcellulose) (HPC)): 109 % of control
- T/C (dose: 0.12 mg/kg/injection, schedule: Q01DX009 (ip), vehicle: saline with Tween-80): 119 % of control
- T/C (dose: 0.12 mg/kg/injection, schedule: Q01DX009 (ip), vehicle: saline): 120 % of control and 100 % of control
- T/C (dose: 0.13 mg/kg/injection, schedule: Q01DX009 (ip), vehicle: water): 109 % of control and 110 % of control
- T/C (dose: 0.25 mg/kg/injection, schedule: Q01DX005 (ip), vehicle: saline): 124 % of control
- T/C (dose: 0.25 mg/kg/injection, schedule: Q01DX005 (iv), vehicle: saline): 107 % of control
- T/C [1]: 116 % of control
- T/C (dose: 0.25 mg/kg/injection, schedule: Q01DX009 (ip), vehicle: saline): 115 % of control
- T/C (dose: 0.25 mg/kg/injection, schedule: Q01DX009 (ip), vehicle: water): 124 % of control
- T/C (dose: 0.5 mg/kg/injection, schedule: Q01DX001 (ip), vehicle: clinical formulation): 122 % of control
- T/C (dose: 0.5 mg/kg/injection, schedule: Q01DX005 (ip), vehicle: saline): 166 % of control
- T/C (dose: 0.5 mg/kg/injection, schedule: Q01DX005 (iv), vehicle: saline): 86 % of control
- T/C [2]: 116 % of control
- T/C (dose: 0.5 mg/kg/injection, schedule: Q01DX009 (ip), vehicle: saline with Tween-80): 166 % of control
- T/C (dose: 0.5 mg/kg/injection, schedule: Q01DX009 (ip), vehicle: saline): 161 % of control
- T/C (dose: 0.5 mg/kg/injection, schedule: Q01DX009 (ip), vehicle: water): 150 % of control
- T/C (dose: 0.75 mg/kg/injection, schedule: Q04DX003 (ip), vehicle: clinical formulation): 121 % of control
- T/C (dose: 1.0 mg/kg/injection, schedule: Q01DX001 (ip), vehicle: saline): 165 % of control
- T/C (dose: 1.0 mg/kg/injection, schedule: Q01DX001 (iv), vehicle: saline): 93 % of control
- T/C (dose: 1.0 mg/kg/injection, schedule: Q01DX005 (ip), vehicle: saline): 168 % of control
- T/C [3]: 155 % of control
- T/C (dose: 1.0 mg/kg/injection, schedule: Q01DX009 (ip), vehicle: saline with Tween-80): 191 % of control
- T/C (dose: 1.0 mg/kg/injection, schedule: Q01DX009 (ip), vehicle: saline): 185 % of control
- T/C (dose: 1.0 mg/kg/injection, schedule: Q01DX009 (ip), vehicle: water): 156 % of control and 173 % of control
- T/C (dose: 1.0 mg/kg/injection, schedule: Q04DX003 (ip), vehicle: clinical formulation): 156 % of control and 160 % of control
- T/C (dose: 1.25 mg/kg/injection, schedule: Q01DX009 (oral), vehicle: water): 91 % of control
- T/C (dose: 2.0 mg/kg/injection, schedule: Q01DX001 (ip), vehicle: clinical formulation): 159 % of control
- T/C (dose: 2.0 mg/kg/injection, schedule: Q01DX001 (iv), vehicle: saline): 118 % of control
- T/C (dose: 2.0 mg/kg/injection, schedule: Q01DX005 (ip), vehicle: saline): 179 % of control
- T/C (dose: 2.0 mg/kg/injection, schedule: Q01DX009 (ip), vehicle: water): 190 % of control
- T/C (dose: 2.0 mg/kg/injection, schedule: Q04DX003 (ip), vehicle: clinical formulation): 190 % of control and 195 % of control
- T/C (dose: 2.5 mg/kg/injection, schedule: Q01DX009 (oral), vehicle: water): 102 % of control
- T/C (dose: 3.0 mg/kg/injection, schedule: Q04DX003 (ip), vehicle: clinical formulation): 203 % of control
- T/C (dose: 4.0 mg/kg/injection, schedule: Q01DX001 (ip), vehicle: clinical formulation): 193 % of control
- T/C (dose: 4.0 mg/kg/injection, schedule: Q01DX001 (ip), vehicle: saline): 176 % of control
- T/C (dose: 4.0 mg/kg/injection, schedule: Q01DX001 (iv), vehicle: saline): 115 % of control
- T/C (dose: 4.0 mg/kg/injection, schedule: Q04DX003 (ip), vehicle: clinical formulation): 239 % of control
- T/C (dose: 8.0 mg/kg/injection, schedule: Q01DX001 (ip), vehicle: clinical formulation): 164 % of control
- T/C (dose: 8.0 mg/kg/injection, schedule: Q01DX001 (ip), vehicle: saline): 216 % of control

Compound: Nc1nc(Cc2ccccc2)c(CCCNc2ccccc2)c(=O)[nH]1
- T/C (dose: 6.25 mg/kg/injection, schedule: Q01DX009 (ip), vehicle: saline with Tween-80): 101 % of control
- T/C [4]: 109 % of control
- T/C [5]: 92 % of control
- T/C [6]: 86 % of control

Compound: NCC(=O)NC(Cc1ccc(O)cc1)C(=O)O (stereo not drawn) (HELM PEPTIDE1{G.[O=C(O)C(Cc1ccc(O)cc1)N[*:1]]}$$$$V2.0)
- T/C [7]: 110 % of control
- T/C [8]: 123 % of control

Compound: Cc1c2cc[n+](CCN3CCCCC3)cc2c(C)c2c1[nH]c1ccc(O)cc12
- T/C (dose: 6.25 mg/kg/injection, schedule: Q01DX009 (ip), vehicle: suspension in saline): 153 % of control
- T/C (dose: 12.5 mg/kg/injection, schedule: Q01DX009 (ip), vehicle: suspension in saline): 204 % of control
- T/C (dose: 25.0 mg/kg/injection, schedule: Q01DX009 (ip), vehicle: saline): 172 % of control and 189 % of control

Compound: O=C1OCC2C(=O)OCC12 (stereo not drawn)
- T/C [4]: 99 % of control
- T/C [5]: 99 % of control
- T/C [6]: 102 % of control
- T/C (dose: 100.0 mg/kg/injection, schedule: Q01DX009 (ip), vehicle: saline with Tween-80): 101 % of control
- T/C (dose: 200.0 mg/kg/injection, schedule: Q01DX009 (ip), vehicle: saline with Tween-80): 106 % of control

Compound: CN(C)CC(=O)c1ccc(O)c(O)c1
- T/C [7]: 104 % of control
- T/C [8]: 114 % of control and 102 % of control
- T/C [9]: 122 % of control and 108 % of control

Compound: O=C(O)C1CC1.[Ag]
- T/C (dose: 0.78 mg/kg/injection, schedule: Q01DX009 (ip), vehicle: water): 99 % of control
- T/C (dose: 1.56 mg/kg/injection, schedule: Q01DX009 (ip), vehicle: water): 122 % of control
- T/C (dose: 3.12 mg/kg/injection, schedule: Q01DX009 (ip), vehicle: water): 100 % of control
- T/C (dose: 6.25 mg/kg/injection, schedule: Q01DX009 (ip), vehicle: water): 92 % of control

Compound: CCc1nc(N)nc(N)c1-c1ccc(Cl)c(Cl)c1.[Cl][Pd][Cl]
- T/C (dose: 3.12 mg/kg/injection, schedule: Q01DX009 (ip), vehicle: saline): 114 % of control

Compound: COc1cc2cc3c(c(O)c2c(O)c1/C=C/C(C)C)C(=O)CC(C)(OC(C)=O)C3 (stereo not drawn)
- T/C (dose: 0.62 mg/kg/injection, schedule: Q01DX009 (ip), vehicle: Klucel (hydroxypropylcellulose) (HPC)): 98 % of control
- T/C (dose: 0.63 mg/kg/injection, schedule: Q01DX009 (ip), vehicle: Klucel (hydroxypropylcellulose) (HPC)): 104 % of control
- T/C (dose: 1.25 mg/kg/injection, schedule: Q01DX009 (ip), vehicle: Klucel (hydroxypropylcellulose) (HPC)): 109 % of control and 112 % of control
- T/C (dose: 2.5 mg/kg/injection, schedule: Q01DX009 (ip), vehicle: Klucel (hydroxypropylcellulose) (HPC)): 115 % of control and 122 % of control
- T/C (dose: 10.0 mg/kg/injection, schedule: Q01DX009 (ip), vehicle: Klucel (hydroxypropylcellulose) (HPC)): 100 % of control

Compound: CC(C)(C#CC(C)(C)OC(=O)Nc1ccccc1)OC(=O)Nc1ccccc1
- T/C [7]: 106 % of control
- T/C [8]: 100 % of control
- T/C [9]: 98 % of control

Compound: COc1cc2cc(c1Cl)N(C)C(=O)/C=C/C1(C)OC1C(C)C1CC(O)(NC(=O)O1)C(OC)/C=C/C=C(\C)C2OC (stereo not drawn)
- T/C (dose: 4.0 micrograms/kg/injection, schedule: Q01DX009 (ip), vehicle: distilled water + alcohol): 117 % of control
- T/C (dose: 8.0 micrograms/kg/injection, schedule: Q01DX009 (ip), vehicle: distilled water + alcohol): 105 % of control
- T/C (dose: 16.0 micrograms/kg/injection, schedule: Q01DX009 (ip), vehicle: distilled water + alcohol): 112 % of control

Compound: NCC(=O)N1CCCC1C(=O)NCC(=O)NCC(=O)O (stereo not drawn) (HELM PEPTIDE1{G.[O=C(C1CCCN1[*:1])[*:2]].G.G}$$$$V2.0)
- T/C (dose: 50.0 mg/kg/injection, schedule: Q01DX009 (ip), vehicle: saline): 92 % of control
- T/C [7]: 100 % of control
- T/C [8]: 95 % of control

Compound: O=C1C=C2C(=CCOC2O)O1 (stereo not drawn)
- T/C [1]: 95 % of control and 97 % of control
- T/C [2]: 94 % of control and 98 % of control
- T/C [3]: 99 % of control and 100 % of control
- T/C (dose: 2.0 mg/kg/injection, schedule: Q01DX009 (ip), vehicle: Klucel (hydroxypropylcellulose) (HPC)): 97 % of control
- T/C (dose: 4.0 mg/kg/injection, schedule: Q01DX009 (ip), vehicle: Klucel (hydroxypropylcellulose) (HPC)): 91 % of control

Compound: CCCCc1ccc(-n2c(C)c(COC(=O)NC)c(COC(=O)NC)c2C)cc1
- T/C (dose: 6.25 mg/kg/injection, schedule: Q01DX009 (ip), vehicle: Klucel (hydroxypropylcellulose) (HPC)): 170 % of control
- T/C (dose: 12.5 mg/kg/injection, schedule: Q01DX009 (ip), vehicle: Klucel (hydroxypropylcellulose) (HPC)): 174 % of control
- T/C (dose: 25.0 mg/kg/injection, schedule: Q01DX009 (ip), vehicle: Klucel (hydroxypropylcellulose) (HPC)): 169 % of control
